Results from patent US20230270721A1, “INHIBITION OF BAX-MEDIATED CELL DEATH BY ELTROMBOPAG” (Albert Einstein College of Medicine, priority 2020, published 2023).

What was measured:
[1] = tested on: 3T3 cells; assay: Cell viability assay (CellTiter-Glo), ABT-263 + S63845; type: cell-based, murine; details: 1 µM ABT-263 and 1 µM S63845, 24 hr
Method: 3T3 cells were maintained in media identical to that of MEFs. 3T3 cells were seeded (1×10^4 cells/well) in 96-well opaque plates for 18-24 hr. The media was removed and replaced with media lacking FBS, and cells were treated with EO as a 10X stock in H2O at the indicated doses for 2 hr before addition of 10% FBS. Cells were then treated with 1 µM each of ABT-263 and S63845. Caspase 3/7 activation was measured at 4 hr by addition of the Caspase-Glo 3/7 chemiluminescence reagent in accordance with the manufacturer’s protocol (Promega). Luminescence was detected by an F200 PRO microplate reader (TECAN). Percentage caspase activation was normalized to ABT-263 + S63845 alone (100%) and untreated cells (0%). Viability assays were performed at 24 hr by addition of CellTiter-Glo according to the manufacturer’s protocol (Promega). Luminescence was detected by an F200 PRO microplate reader (TECAN). Percentage viability was normalized to untreated cells (100%).
Next, whether EO is capable of rescuing cell death in cells expressing both BAX and BAK was determined. 3T3 cells, a murine fibroblast cell line, were treated with a combination of BH3-mimetics navitoclax (ABT-263) and S63845, which only in combination cause significant cytotoxicity in fibroblast cells.

[2] = biological target: T1, BAX K21E (Homo sapiens, UniProt Q07812, K21E); assay: Liposomal permeabilization assay, trigger site mutant K21E; type: biochemical; details: 250 nM BAX and 5 nM tBID
T1 construct: Human full-length (1-192) wild-type BAX (Q07812); made in house; host or cells: E. coli BL21 (DE3) CodonPlus (DE3)-RIPL
T1 sequence (Q07812 whole entry K21E): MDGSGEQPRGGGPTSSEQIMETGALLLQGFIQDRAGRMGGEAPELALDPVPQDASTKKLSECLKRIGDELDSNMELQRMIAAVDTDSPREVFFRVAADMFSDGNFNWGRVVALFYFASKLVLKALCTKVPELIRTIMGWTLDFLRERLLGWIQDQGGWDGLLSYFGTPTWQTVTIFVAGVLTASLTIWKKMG
Method: Lipids (Avanti Polar Lipids) at the following ratio, phosphatidylcholine 48%, phosphatidylinositol 10%, dioleoyl phosphatidylserine 10%, phosphatidylethanolamine, 28%, and tetraoleoyl cardiolipin 4%, were mixed in a total of 1 mg, dried and resuspended in 10 mM HEPES, pH 7, 200 mM KCI, and 5 mM MgCl2 with 12.5 mM 8-aminonaphthalene-1,3,6-trisulfonic acid (ANTS) dye and 45 mM p-xylene-bis-pyridinium bromide (DPX) quencher (Molecular Probes) using a water bath sonicator. Liposomes were formed by extrusion of the suspension using Avanti Mini-Extruder (Cat # 610000) with polycarbonate membranes of 0.1 µm pore size (Avanti Polar Lipids). […] ANTS/DPX release was quantified based on the increase in fluorescence intensity that occurs when the ANTS fluorophore is separated from the DPX quencher upon release from the liposomes into solution. Fluorescence (λex = 355 nm and λem = 520 nm) was measured at 1 minute intervals at room temperature (22-25° C.) indicated using a Tecan Infinite M1000 plate reader. In the case of heat activation, reactions were set up as described in the absence of tBID or BIM, and experiments were recorded at 42° C. The percentage release of ANTS/DPX at any given time point was calculated as percentage release=((F-F0)/(F100-F0))(100), where F0 and F100 are baseline and maximal fluorescence, respectively. […]

[3] = biological target: T2, BAX in BAK KO MEFs (Mus musculus, UniProt Q07813); assay: Cellular Thermal Shift Assay (CETSA); type: cell-based; details: 10 pM EO, 2 hours
T2 construct: endogenous in cells; host or cells: BAK KO mouse embryonic fibroblasts
T2 sequence (Q07813 whole entry): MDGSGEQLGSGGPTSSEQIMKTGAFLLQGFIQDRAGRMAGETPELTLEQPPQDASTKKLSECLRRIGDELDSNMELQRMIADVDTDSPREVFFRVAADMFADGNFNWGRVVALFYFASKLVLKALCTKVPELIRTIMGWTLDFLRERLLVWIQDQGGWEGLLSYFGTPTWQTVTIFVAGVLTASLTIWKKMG
Method: BAK KO MEFs were seeded in a 10 cm dish for 18-24 hours or until approximately 80% confluent. The media was removed and replaced with media lacking FBS, and cells were treated with 10 pM EO as a 10X stock in H2O or vehicle for 2 hours. The media was then removed, and cells were harvested using a cell scraper and washed twice with PBS. Cells were then resuspended in PBS to 6×10^6 cells/mL, and […] was transferred to PCR tubes. Cells were then heated in a Biorad C1000 Touch Thermal Cycler for 3 minutes using a temperature gradient (50, 52.1, 55.4, 59.4, 64.9, 69.2, 72.1, and 74° C.). Cells remaining at room temperature (25° C.) served as a control. All cells were lysed by three cycles of freeze-thawing using liquid nitrogen. Samples were then centrifuged at 2×10^4 g for 15 minutes. The supernatants were collected and resolved by SDS-PAGE with an N-terminal BAX antibody (Cell Signaling, 2772S). Samples were analyzed and quantified using a Li-Cor Odyssey Clx and normalized to 25° C. (100%) and 74° C.(0%).
To confirm direct engagement of BAX, Cellular Thermal Shift Assay (CETSA) was performed in BAK KO MEFs.

[4] = tested on: platelets of C57BL/6J mice; assay: In vivo mouse platelet experiments; details: co-administration: ABT-263 25 mg/kg + EO 100 mg/kg then 50 mg/kg 3 hrs later, oral gavage, 24 hours
Method: Wild type black mice strain C57BL/6J were treated with vehicle, ABT-263 (25 mg/kg, single dose), EO (100 mg/kg, then 3 hrs later 50 mg/kg), or a combination of ABT-263 and EO. EO was formulated in dH2O, and ABT-263 was formulated in 10% ethanol, 30% polyethylene glycol 400, and 60% Phosal 50 PG. Both ABT-263 and EO were administered by oral gavage. Blood samples were collected by submandibular bleed before treatment and 24 hours following treatment, and CBC was acquired. Percentage platelet protection was calculated as follows: % Platelet Protection = (100)(Px - mPABT)/(mPv - mPABT) where Px is the platelet count for a given mouse, mPv is the mean vehicle treated platelet count, and mPABT is the mean ABT-263 treated platelet count. Statistical analysis was performed using one-way ANOVA with select multiple comparisons as shown.
Finally, whether EO can rescue thrombocytopenia induced by the activity of navitoclax was evaluated in mice. The use of navitoclax is limited by on-target toxicity triggering BAK/BAX-mediated platelet apoptosis (Zhang, H. et al. Cell Death Differ 14, 943-951 (2007)). […] This EO effect is distinct from its capacity to stimulate platelet production by differentiation of the megakaryocyte precursors and progenitor cells, which requires 5 days to begin (Erickson-Miller, C. L. et al. Stem Cells 27, 424-430 (2009); Jenkins, J. M. et al. Blood 109, 4739-4741 (2007)).

Question: Which results are given for `CC1=NN(c2ccc(C)c(C)c2)C(=O)/C1=N\Nc1cccc(-c2cccc(C(=O)O)c2)c1O` [EO, eltrombopag]?
Answer: cell viability [1]: dose-dependent rescue of cell viability; inhibition of liposomal release versus BAX WT [2]: not reduced inhibition; lowering of BAX TM (CETSA) [3]: 9 °C; navitoclax-induced platelet loss [4]: markedly inhibited platelet loss to acceptable levels
